Experimental data taken from ChEMBL document CHEMBL4828714, “Mutasynthesis of Antibacterial Halogenated Actinomycin Analogues” (J Nat Prod, 2021).
In brackets after ≈: the same amount, converted by molar mass. Numbered stars: 1 amine (or outer) side, 2 acyl side, 3 side chain; on linkers, the order of the positions; unused ones are H or OH. Bridge positions count the residues as written; N and C are the ends. Square brackets hold non-standard residues; d marks the D form. Peptide text beside a SMILES is read from it. I, II: the chains in the order shown. Actinocin(1to9) = Cc1c2oc3c(C)ccc(C(=O)[*:2])c3nc-2c(C(=O)[*:1])c(N)c1=O; NMeV = CN[C@H](C(=O)O)C(C)C; Sar = CNCC(=O)O

How the values were obtained:
Staphylococcus aureus [1] = experiment: Antimicrobial activity against Staphylococcus aureus Sau 16162 assessed as inhibition of bacterial growth incubated for 16 to 18 hrs by broth micro dilution technique; assay type: functional; settings: time 16-18 hrs
Staphylococcus aureus [2] = experiment: Antimicrobial activity against Staphylococcus aureus Sau 6917 assessed as inhibition of bacterial growth incubated for 16 to 18 hrs by broth micro dilution technique; assay type: functional; settings: time 16-18 hrs
Staphylococcus aureus [3] = experiment: Antimicrobial activity against Staphylococcus aureus Sau 1862 assessed as inhibition of bacterial growth incubated for 16 to 18 hrs by broth micro dilution technique; assay type: functional; settings: time 16-18 hrs
Staphylococcus aureus [4] = experiment: Antimicrobial activity against Staphylococcus aureus Sau 991 assessed as inhibition of bacterial growth incubated for 16 to 18 hrs by broth micro dilution technique; assay type: functional; settings: time 16-18 hrs
Staphylococcus aureus [5] = experiment: Antimicrobial activity against Staphylococcus aureus Sau 718306 assessed as inhibition of bacterial growth incubated for 16 to 18 hrs by broth micro dilution technique; assay type: functional; settings: time 16-18 hrs
Staphylococcus aureus [6] = experiment: Antimicrobial activity against Staphylococcus aureus Sau 745524 assessed as inhibition of bacterial growth incubated for 16 to 18 hrs by broth micro dilution technique; assay type: functional; settings: time 16-18 hrs
Staphylococcus aureus [7] = experiment: Antimicrobial activity against Staphylococcus aureus CCAM 3090 assessed as inhibition of bacterial growth incubated for 16 to 18 hrs by broth micro dilution technique; assay type: functional; settings: time 16-18 hrs
Staphylococcus aureus [8] = experiment: Antimicrobial activity against Staphylococcus aureus ATCC 29213 assessed as inhibition of bacterial growth incubated for 16 to 18 hrs by broth micro dilution technique; assay type: functional; settings: time 16-18 hrs
Micrococcus luteus = experiment: Antimicrobial activity against Micrococcus luteus ML01 assessed as inhibition of bacterial growth incubated for 16 to 18 hrs by broth micro dilution technique; assay type: functional; settings: time 16-18 hrs
Enterococcus faecium = experiment: Antimicrobial activity against Enterococcus faecium ATCC 35682 assessed as inhibition of bacterial growth incubated for 16 to 18 hrs by broth micro dilution technique; assay type: functional; settings: time 16-18 hrs
Enterococcus faecalis = experiment: Antimicrobial activity against Enterococcus faecalis ATCC 29212 assessed as inhibition of bacterial growth incubated for 16 to 18 hrs by broth micro dilution technique; assay type: functional; settings: time 16-18 hrs
Bacillus thuringiensis = experiment: Antimicrobial activity against Bacillus thuringiensis BT01 assessed as inhibition of bacterial growth incubated for 16 to 18 hrs by broth micro dilution technique; assay type: functional; settings: time 16-18 hrs
Candida albicans = experiment: Antimicrobial activity against Candida albicans assessed as inhibition of bacterial growth incubated for 16 to 18 hrs by broth micro dilution technique; assay type: functional; settings: time 16-18 hrs
HepG2 = experiment: Cytotoxicity against human HepG2 cells assessed as growth inhibition incubated for 68 hrs by MTT assay; assay type: functional, cell-based; settings: HepG2, 68 h
HeLa = experiment: Cytotoxicity against human HeLa cells assessed as growth inhibition incubated for 68 hrs by MTT assay; assay type: functional, cell-based
HL-60 = experiment: Cytotoxicity against human HL-60 cells assessed as growth inhibition incubated for 68 hrs by MTT assay; assay type: functional, cell-based; settings: HL-60, 68 h
RKO = experiment: Cytotoxicity against human RKO cells assessed as growth inhibition incubated for 68 hrs by MTT assay; assay type: functional, cell-based
A549 = experiment: Cytotoxicity against human A549 cells assessed as growth inhibition incubated for 68 hrs by MTT assay; assay type: functional, cell-based; settings: A549, 68 h
MCF7 = experiment: Cytotoxicity against human MCF7 cells assessed as growth inhibition incubated for 68 hrs by MTT assay; assay type: functional, cell-based; settings: MCF7, 68 h
L02 = experiment: Cytotoxicity against human L02 cells assessed as growth inhibition incubated for 68 hrs by MTT assay; assay type: cell-based; settings: L02, 68 h
BEAS-2B = experiment: Cytotoxicity against human BEAS-2B cells assessed as growth inhibition incubated for 68 hrs by MTT assay; assay type: cell-based

MIC (Staphylococcus aureus [1]) | MIC (Staphylococcus aureus [2]) | MIC (Staphylococcus aureus [3]) | MIC (Staphylococcus aureus [4]) | MIC (Staphylococcus aureus [5]) | MIC (Staphylococcus aureus [6]) | MIC (Staphylococcus aureus [7]) | MIC (Staphylococcus aureus [8]) | MIC (Micrococcus luteus) | MIC (Enterococcus faecium) | MIC (Enterococcus faecalis) | MIC (Bacillus thuringiensis) | MIC (Candida albicans) | Compound | IC50 (HepG2) | IC50 (HeLa) | IC50 (HL-60) | IC50 (RKO) | IC50 (A549) | IC50 (MCF7) | IC50 (L02) | also measured
4 µg/mL (≈ 2.96 µM) | 1 µg/mL (≈ 0.739 µM) | 2 µg/mL (≈ 1.48 µM) | 1 µg/mL (≈ 0.739 µM) | 1 µg/mL (≈ 0.739 µM) | 0.5 µg/mL (≈ 0.369 µM) | 1 µg/mL (≈ 0.739 µM) | 1 µg/mL (≈ 0.739 µM) | 0.06 µg/mL (≈ 0.0443 µM) | 0.5 µg/mL (≈ 0.369 µM) | 2 µg/mL (≈ 1.48 µM) | 0.25 µg/mL (≈ 0.185 µM) | 0.5 µg/mL (≈ 0.369 µM) | CC(C)[C@H]1C(=O)O[C@H](C)[C@H](NC(=O)c2c3nc4c(C(=O)N[C@@H]5C(=O)N[C@H](C(C)C)C(=O)N6CCC[C@H]6C(=O)N(C)CC(=O)N(C)[C@@H](C(C)C)C(=O)O[C@@H]5C)ccc(I)c4oc-3cc(=O)c2N)C(=O)N[C@H](C(C)C)C(=O)N2CCC[C@H]2C(=O)N(C)CC(=O)N1C | 0.1 µM | 4.4 µM | 0.07 µM | 0.1 µM | 9 µM | 2 µM | 1.7 µM | IC50 (BEAS-2B): 0.5 µM
8 µg/mL (≈ 5.91 µM) | 4 µg/mL (≈ 2.96 µM) | 4 µg/mL (≈ 2.96 µM) | 4 µg/mL (≈ 2.96 µM) | 2 µg/mL (≈ 1.48 µM) | 2 µg/mL (≈ 1.48 µM) | 4 µg/mL (≈ 2.96 µM) | 4 µg/mL (≈ 2.96 µM) | 0.06 µg/mL (≈ 0.0443 µM) | 2 µg/mL (≈ 1.48 µM) | 4 µg/mL (≈ 2.96 µM) | 1 µg/mL (≈ 0.739 µM) | 2 µg/mL (≈ 1.48 µM) | CC(C)[C@H]1C(=O)O[C@H](C)[C@H](NC(=O)c2c3nc4c(C(=O)N[C@@H]5C(=O)N[C@H](C(C)C)C(=O)N6CCC[C@H]6C(=O)N(C)CC(=O)N(C)[C@@H](C(C)C)C(=O)O[C@@H]5C)cccc4oc-3c(I)c(=O)c2N)C(=O)N[C@H](C(C)C)C(=O)N2CCC[C@H]2C(=O)N(C)CC(=O)N1C | 3.3 µM | 10 µM | 0.4 µM | 3.3 µM | 34 µM | 25.7 µM | 20.9 µM | IC50 (BEAS-2B): 12.4 µM
8 µg/mL (≈ 6.21 µM) | 2 µg/mL (≈ 1.55 µM) | 2 µg/mL (≈ 1.55 µM) | 2 µg/mL (≈ 1.55 µM) | 2 µg/mL (≈ 1.55 µM) | 2 µg/mL (≈ 1.55 µM) | 2 µg/mL (≈ 1.55 µM) | 2 µg/mL (≈ 1.55 µM) | 0.5 µg/mL (≈ 0.388 µM) | 8 µg/mL (≈ 6.21 µM) | 8 µg/mL (≈ 6.21 µM) | 4 µg/mL (≈ 3.11 µM) | 16 µg/mL (≈ 12.4 µM) | COc1c2oc3c(OC)ccc(C(=O)N[C@@H]4C(=O)N[C@H](C(C)C)C(=O)N5CCC[C@H]5C(=O)N(C)CC(=O)N(C)[C@@H](C(C)C)C(=O)O[C@@H]4C)c3nc-2c(C(=O)N[C@@H]2C(=O)N[C@H](C(C)C)C(=O)N3CCC[C@H]3C(=O)N(C)CC(=O)N(C)[C@@H](C(C)C)C(=O)O[C@@H]2C)c(N)c1=O | 4 µM | 4.3 µM | 0.2 µM | 1.7 µM | 18.5 µM | 4.1 µM | 3.9 µM | IC50 (BEAS-2B): 2.7 µM
1 µg/mL (≈ 0.797 µM) | 0.06 µg/mL (≈ 0.0478 µM) | 0.06 µg/mL (≈ 0.0478 µM) | 0.06 µg/mL (≈ 0.0478 µM) | 0.06 µg/mL (≈ 0.0478 µM) | 0.06 µg/mL (≈ 0.0478 µM) | 0.06 µg/mL (≈ 0.0478 µM) | 0.06 µg/mL (≈ 0.0478 µM) | < 0.06 µg/mL | 0.13 µg/mL (≈ 0.104 µM) | < 0.06 µg/mL | 0.06 µg/mL (≈ 0.0478 µM) | < 0.06 µg/mL | Cc1c2oc3c(C)ccc(C(=O)N[C@@H]4C(=O)N[C@H](C(C)C)C(=O)N5CCC[C@H]5C(=O)N(C)CC(=O)N(C)[C@@H](C(C)C)C(=O)O[C@@H]4C)c3nc-2c(C(=O)N[C@@H]2C(=O)N[C@H](C(C)C)C(=O)N3CCC[C@H]3C(=O)N(C)CC(=O)N(C)[C@@H](C(C)C)C(=O)O[C@@H]2C)c(N)c1=O [DACTINOMYCIN] (I: T[dV]P[Sar][NMeV] / II: T[dV]P[Sar][NMeV]; ester I:1-I:C, II:1-II:C; linker I:N-II:N via Actinocin(1to9)) | 0.01 µM | 0.12 µM | 0.02 µM | 0.03 µM | 3.8 µM | 0.2 µM | 0.5 µM | IC50 (BEAS-2B): 0.7 µM
